Experimental data published in patent US12089595B2, “Pseudomonas strains and their metabolites to control plant diseases” (T3 Bioscience, Inc., priority 2020, dated 2024).
≈ marks a conversion by molar mass, not a printed value. Entries after “also recorded” stand apart in the source; their conditions may differ.

Legend:
strain 0617-T307 = assay: Bioactive fractions tested against the producer strain; type: cell-based, Pseudomonas soli; details: crude extracts 100 μg/mL; flash-RejuAgro A 20 μg/mL; HPLC-RejuAgro A 10 μg/mL
Description: (§1) Two assays were used for the antimicrobial test of 0617-T307 cell broth and metabolites. One is plate diffusion assay and the other one is microplate assay. LB plate was used for the plate diffusion assay of the antimicrobial activity of RejuAgro A containing fractions and cell broths against E. amylovora (Table 3).
(§2) The bioactive fractions (crude extracts, 100 μg/mL; flash-RejuAgro A, 20 μg/mL; HPLC-RejuAgro A, 10 μg/mL) were tested against strains 0617-T307, Ea and Xac.

P. infestans = assay: microbe, parasite or virus in culture; type: cell-based; details: Phytophthora infestans
Magnaporthe oryzae = assay: microbe, parasite or virus in culture; type: cell-based; details: Pyricularia oryzae, 144 h
[1] = tested on: Mycosphaerella fijiensis 10CR-25; assay: Antimicrobial effect in PDA agar medium (6-well plate); type: cell-based
Description: The antimicrobial effect of RejuAgro A on Mycosphaerella fijiensis was examined by adding final concentrations of 60 and 600 μg/mL of HPLC purified RejuAgro A respectively into the PDA agar medium. A 480 μL of 0.5 mg/mL or 5 mg/mL RejuAgro A was added into 3.52 mL of PDA in a well of a 6-well plate to make the final concentration of RejuAgro A at 60 (FIG. 12, middle well (panel A)) and 600 μg/mL (FIG. 12, left well (panel B)) respectively. The plate was gently shaken to let the compound dissolved.

[2] = tested on: Fusarium oxysporum f. sp. Melonsis; assay: microbe, parasite or virus in culture; type: cell-based; details: 144 h
[3] = tested on: Liberibacter crescens BT-1; assay: microbe, parasite or virus in culture; type: cell-based
R. solanacearum K60 = assay: microbe, parasite or virus in culture; type: cell-based; details: Ralstonia solanacearum, K60, read-out: Diameter of the zone of inhibition
[4] = tested on: Phytophthora infestans Pi 1306; assay: microbe, parasite or virus in culture; type: cell-based
Colletotrichum dematium = assay: microbe, parasite or virus in culture; type: cell-based; details: 144 h
Septoria tritici = assay: microbe, parasite or virus in culture; type: cell-based; details: Zymoseptoria tritici, 144 h
[5] = tested on: Xanthomonas citri pv. citri citrange (XW19); assay: Paper disc inhibition zone on PSG agar plates; details: 44 h, read-out: Inhibition zone
Xac = assay: Bioactive fractions tested against Xac; type: cell-based, Xanthomonas axonopodis pv. citri; details: crude extracts 100 μg/mL; flash-RejuAgro A 20 μg/mL; HPLC-RejuAgro A 10 μg/mL
Solubility in solvents = type: physicochemical; details: methanol, chloroform
Description: Preparative HPLC (Prep-HPLC) purification of the fraction 3840 and 5054 lead to the discovery of 15 mg yellow colored compound RejuAgro A (Rt17.5) and 103.3 mg dark-green colored compound RejuAgro B, respectively. […] The structures of the two compounds have been investigated by High resolution mass spectrometry (HR-MS), infrared (IR), Ultraviolet (UV), 1D and 2D Nuclear magnetic resonance (NMR) as well as X-ray crystal structure analysis.

[6] = tested on: the other soft pathogenetic bacteria (Pectobacterium, Dickeya dadantii); assay: MIC antimicrobial assay; type: cell-based
[7] = tested on: Phytophthora infestans Pi 88069; assay: microbe, parasite or virus in culture; type: cell-based
[8] = Stability of RejuAgro A in the culture (LCMS); type: physicochemical; details: room temperature; 40-h culture of 0617-T307 in YME; tested by LCMS
Description: RejuAgro A can be present and stable in the culture at room temperature for at least 4 weeks, as tested by LCMS for 40-h culture obtained by growing 0617-T307 in YME media on a shaker at 16° C. and 220 rpm.

[9] = tested on: Xanthomonas axonopodis pv. citri-Miami XC2002-00010; assay: MIC antimicrobial assay (CLSI, 96 well plates); type: cell-based
Venturia inaequalis = assay: Antifungal assay on amended PDA plates; type: cell-based
Description: The fungus Venturia inaqualis that causes apple scab was maintained on PDA agar in the dark at room temperature (˜24° C.). A mixture of conidia and mycelia suspension (in 0.01 M PBS) was harvested from PDA (Potato dextrose agar). Ten μL the conidia and mycelia suspension were dropped onto biocontrol bacteria, RejuAgro A, or RejuAgro A amended plates. The control was PDA plates without the addition of the biocontrol bacteria or RejuAgro A or B. […]

Ea = assay: Bioactive fractions tested against Ea; type: cell-based, Erwinia amylovora; details: crude extracts 100 μg/mL; flash-RejuAgro A 20 μg/mL; HPLC-RejuAgro A 10 μg/mL
Description: as §1, §2

[10] = tested on: Xanthomonas oryzae pv. oryzicola (Xon507); assay: microbe, parasite or virus in culture; type: cell-based; details: 44 h, read-out: Inhibition zone
[11] = tested on: Ralstonia solanacearum Pss4; assay: microbe, parasite or virus in culture; type: cell-based; details: PSS4, Ralstonia solanacearum Pss4 (bacterial wilt)
[12] = tested on: Ralstonia solanacearum K60; assay: microbe, parasite or virus in culture; type: cell-based; details: K60, Ralstonia solanacearum K60 (bacterial wilt)

In the case of `CSC1=C(C)C(=O)C(=O)NC1=O` [RejuAgro A], the “inhibition of growth of strain 0617-T307” value (strain 0617-T307) is reported as “not able to inhibit the growth”, the inhibition at 40 µg/mL (P. infestans) is reported as 100% and the MIC (Magnaporthe oryzae) is reported as 75 µg/mL (≈ 405 µM). The “growth of M. fijiensis on PDA agar” value ([1]; 60 μg/mL) was “growth”, the “growth of M. fijiensis on PDA agar” value ([1]; 600 μg/mL, two weeks post-inoculation) was “complete inhibition; also recorded: inhibitory growth” and the MIC ([1]; Pseudocercospora fijiensis, 10CR25, Mycosphaerella fijiensis 10CR-25 (black sigatoka of Banana)) was 600 µg/mL (≈ 3240 µM). For the same compound, the MIC [2] was 100 µg/mL (≈ 540 µM), the “growth of L. crescens” value ([3]; 1 mg/L) was “partial inhibition of growth” and the “growth of L. crescens” value ([3]; 2.5 mg/L, for 16 days) was “inhibition of growth”. The “growth of L. crescens BT1” value ([3]; BM7 medium at 28° C., 10 mg/L, 20 mg/L, and 40 mg/L) was “inhibition of growth”, the MIC ([3]; Liberibacter crescens, BT1, read-out: minimal inhibitory concentration (MIC)) was 2.5 µg/mL (≈ 13.5 µM) and the zone of inhibition at 2000 µg/mL (R. solanacearum K60) was 4 mm. It also gave an MIC [4] of 40 µg/mL (≈ 216 µM), an MIC (Colletotrichum dematium) of 50 µg/mL (≈ 270 µM) and an MIC (Septoria tritici) of 100 µg/mL (≈ 540 µM). For the same compound, the zone of inhibition at 5.5 µg/mL [5] was 0 mm, the zone of inhibition at 11.1 µg/mL [5] was 0 mm and the zone of inhibition at 22.1 µg/mL [5] was 0 mm. It also gave a zone of inhibition at 33.2 µg/mL [5] of 0 mm, a zone of inhibition at 55.4 µg/mL [5] of 2.3 ± 0.6 mm and a zone of inhibition at 110.7 µg/mL [5] of 2.7 ± 1.2 mm. For the same compound, the “inhibition of growth of Xac” value (Xac) was “almost abolish the growth”, the “solubility in methanol and chloroform” value (Solubility in solvents) was “can be dissolved” and the MIC [6] was 20 to 40 µg/mL (≈ 108 to 216 µM). For the same compound, the MIC [7] was 40 µg/mL (≈ 216 µM), the “present and stable in the culture” value [8] was “at least 4 weeks” and the MIC [9] was 5 µg/mL (≈ 27 µM). The “growth of V. inaequalis on PDA plates” value (Venturia inaequalis; 40-80 μg/mL in PDA plate, day 14 (figure)) was “can inhibit the growth; also recorded: cannot grow”, the inhibition at 80 µg/mL (Venturia inaequalis; Venturia inaequalis) was 100% and the MIC (Venturia inaequalis; Venturia inaequalis (Apple scab)) was 80 µg/mL (≈ 432 µM). The “inhibition of growth of Ea” value (Ea) was “almost abolish the growth”, the zone of inhibition at 5.5 µg/mL [10] was 2.7 ± 0.6 mm and the zone of inhibition at 11.1 µg/mL [10] was 5 ± 1 mm. It also gave a zone of inhibition at 22.1 µg/mL [10] of 7.3 ± 1.5 mm, a zone of inhibition at 33.2 µg/mL [10] of 8.3 ± 1.5 mm and a zone of inhibition at 55.4 µg/mL [10] of 9.3 ± 0.6 mm. For the same compound, the zone of inhibition at 110.7 µg/mL [10] was 13.3 ± 1.2 mm.
Work on `[H]/N=C(/N)N[C@H]1[C@H](O)[C@@H](O)[C@H](O[C@@H]2O[C@@H](C)[C@](O)(C=O)[C@H]2O[C@@H]2O[C@@H](CO)[C@H](O)[C@@H](O)[C@@H]2NC)[C@@H](N/C(N)=N\[H])[C@@H]1O` [Streptomycin, reference compound] yielded an MIC [11] of 12.5 µg/mL (≈ 21.5 µM), a zone of inhibition at 100 µg/mL (R. solanacearum K60) of 15 mm and an MIC [12] of 12.5 µg/mL (≈ 21.5 µM). For the same compound, the MIC [9] was 0.16 µg/mL (≈ 0.275 µM).
